The values that follow come from patent US9115147B2, “Tricyclic derivatives and their pharmaceutical use and compositions” (Cephalon, Inc., priority 2009, dated 2015).

This assay deals with T1, human 5-HT6 receptor (Homo sapiens, UniProt P50406).
T1 construct: host or cells: CHO-K1 cells, stably transfected; membranes prepared in house
Nature of the assay: Human 5-HT6 Receptor Binding Assay ([3H]LSD, scintillation beads). The settings on record: membranes of CHO-K1 cells with recombinant human 5-HT6 receptor, 4 nM [3H]LSD. As for the experimental part: Human 5-HT6 Receptor Binding Assay
Membranes were prepared from CHO-K1 cells stably transfected with the human 5-HT6 receptor (Euroscreen; ES-316-C). The cells were grown in Gibco Advanced DMEM-F12 (Cat#12634010) containing 2% dialyzed FBS (Hyclone Cat#SH30079.03). The cells were harvested in phosphate buffered saline (PBS) containing 0.1 mM EDTA and pelleted by centrifugation (1000×g), the supernatant was discarded and the pellets were stored at −80° C. prior to membrane preparation. Membranes were prepared as previously described (J Bio Chem. 1992, 267 (14) 9844-51). Briefly, frozen cell pellet was resuspended in a lysis buffer containing 5 mM Tris-HCl (pH 7.5), 5 mM EDTA and 1 complete EDTA-free protease inhibitor tablet (Roche Applied Science, Indianapolis, Ind.) per 50 mL buffer, and homogenized with a tissue homogenizer. The cell lysate was then centrifuged at 40,000×g for 30 min at 4° C. to collect the membranes. The membrane pellets were washed in membrane buffer (50 mM Tris-HCl (pH 7.5), 0.6 mM EDTA, 5 mM MgCl2, 1 complete EDTA-free protease inhibitor tablet per 50 mL buffer) using a tissue homogenizer. The membranes were centrifuged at 40,000×g for 30 min at 4° C. and the pellets were resuspended in membrane buffer containing 250 mM sucrose, and protein concentration was determined using the Coomassie Plus kit (Pierce Biotechnology, Rockford, Ill.).
Membranes prepared from cells expressing recombinant human 5-HT6 receptor (h5-HT6) were resuspended in assay buffer containing 50 mM Tris HCl, (pH7.4), 4 mM CaCl2, 10 μg/mL saponin, and 0.1% (w/v) ascorbic acid. Membranes were preincubated using 1.75 μg membrane protein and 0.25 mg FlashBlue scintillation beads (PerkinElmer catalogue #FB001) per well at 4° C. for 30 min. […] Test compounds or assay controls for total and non-specific binding were diluted in DMSO as 100× solutions and serially diluted by half log concentrations on a Perkin Elmer JANUS Automated Workstation. Serotonin (10 μM final concentration) was used to determine non-specific binding in the assay. Plates were read using the Microbeta Trilux 1450 LSC and luminescence counter. Data were analyzed by nonlinear […] using the dose-response equation (variable slope) to calculate IC50 in XLfit4 (ID Business Solutions Inc.): y=(Bottom+((Top−Bottom)/(1+((IC50/x)^Hill slope))))
Ki value was then calculated according to the Cheng-Prusoff method using the equation below (Cheng and Prusoff, 1973): Ki, app=IC50/(1+([radioligand]/Kd))

The mark [1] stands for this setting: Cheng-Prusoff, read-out: Human 5-HT6 Ki app.
The mark [2] stands for this setting: Human 5-HT6 Ki app (nM), Cheng-Prusoff.

Where two headings read alike, the source gives them in different places. Bounds are passed on as bounds.

T1 sequence (P50406 whole entry): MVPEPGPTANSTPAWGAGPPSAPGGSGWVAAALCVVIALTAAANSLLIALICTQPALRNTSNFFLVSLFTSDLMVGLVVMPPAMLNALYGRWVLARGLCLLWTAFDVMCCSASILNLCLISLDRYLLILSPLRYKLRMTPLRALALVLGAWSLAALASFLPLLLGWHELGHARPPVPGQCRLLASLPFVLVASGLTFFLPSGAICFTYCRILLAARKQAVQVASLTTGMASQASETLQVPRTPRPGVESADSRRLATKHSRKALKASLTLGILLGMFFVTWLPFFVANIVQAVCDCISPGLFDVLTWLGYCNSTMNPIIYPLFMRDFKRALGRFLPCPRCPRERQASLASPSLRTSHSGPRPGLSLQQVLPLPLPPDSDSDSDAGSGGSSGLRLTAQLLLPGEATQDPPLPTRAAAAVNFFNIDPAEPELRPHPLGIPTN

In the case of `O=S(=O)(c1ccccc1)c1ccc2c(c1)OCC1C2CCN1CC1CCCC1` (single isomer, unassigned) [Example 71, 3-(cyclopentylmethyl)-7-(phenylsulfonyl)-1,2,3,3a,4,9b-hexahydrochromeno[3,4-b]pyrrole], the Ki under setting [1] was above 1000 nM.

For `O=S(=O)(c1cncc(Cl)c1)c1ccc2c(c1)OCC1C2CCN1C1CCC1` (single isomer, unassigned) [Example 76, 7-[(5-chloropyridin-3-yl)sulfonyl]-3-cyclobutyl-1,2,3,3a,4,9b-hexahydrochromeno[3,4-b]pyrrole], the Ki under setting [1] is below 500 nM.

For `O=S(=O)(c1ccc2c(c1)OCC1NCCC21)c1cccc2ccccc12` (single isomer, unassigned) [Example 19, 7-(naphthalen-1-ylsulfonyl)-1,2,3,3a,4,9b-hexahydrochromeno[3,4-b]pyrrole], the Ki under setting [1] was below 500 nM.

Consider `O=S(=O)(c1cncc(C(F)(F)F)c1)c1ccc2c(c1)OCC1C2CCN1C1CCC1` (single isomer, unassigned) [Example 86, 3-cyclobutyl-7-{[5-(trifluoromethyl)pyridin-3-yl]sulfonyl}-1,2,3,3a,4,9b-hexahydrochromeno[3,4-b]pyrrole], for which, under setting [1], the Ki is above 1000 nM.

As to `O=S(=O)(c1ccccc1)c1ccc2c(c1)C1CCNC1CO2` (single isomer, unassigned) [Example 54, 8-(phenylsulfonyl)-1,2,3,3a,4,9b-hexahydrochromeno[3,4-b]pyrrole], under setting [1], the Ki was below 500 nM.

Regarding `O=S(=O)(c1cccc(OC(F)(F)F)c1)c1ccc2c(c1)OCC1NCCC21` (single isomer, unassigned) [Example 7, 7-{[3-(trifluoromethoxy)phenyl]sulfonyl}-1,2,3,3a,4,9b-hexahydrochromeno[3,4-b]pyrrole], under setting [1], the Ki was below 500 nM.

In the case of `CC(C)Oc1cc(F)cc(S(=O)(=O)c2ccc3c(c2)OCC2NCCC32)c1` (single isomer, unassigned) [Example 43, 7-{[3-fluoro-5-(propan-2-yloxy)phenyl]sulfonyl}-1,2,3,3a,4,9b-hexahydrochromeno[3,4-b]pyrrole], the Ki under setting [1] is below 500 nM.

Consider `O=S(=O)(c1ccccc1)c1ccc2c(c1)OCC1C2CCN1CCCO` (single isomer, unassigned) [Example 93, 3[7-(phenylsulfonyl)-1,3a,4,9b-tetrahydrochromeno[3,4-b]pyrrol-3(2H)-yl]propan-1-ol], for which the Ki under setting [1] was below 500 nM.

On to `COc1cc(F)cc(S(=O)(=O)c2ccc3c(c2)OCC2NCCC32)c1` (single isomer, unassigned) [Example 36, 7-[(3-fluoro-5-methoxyphenyl)sulfonyl]-1,2,3,3a,4,9b-hexahydrochromeno[3,4-b]pyrrole], for which the Ki under setting [1] is below 500 nM.

Consider `Cc1cccc(S(=O)(=O)c2ccc3c(c2)OCC2NCCC32)n1` (single isomer, unassigned) [Example 24, 7-[(6-methylpyridin-2-yl)sulfonyl]-1,2,3,3a,4,9b-hexahydrochromeno[3,4-b]pyrrole], for which the Ki (read-out: Human 5-HT6 Ki app, Cheng-Prusoff) was below 500 nM.

Take `O=S(=O)(c1ccccc1)c1ccc2c(c1)OCC1C2CCN1Cc1ccccc1` (single isomer, unassigned) [Example 95, 3-benzyl-7-(phenylsulfonyl)-1,2,3,3a,4,9b-hexahydrochromeno[3,4-b]pyrrole]: under setting [1], the Ki is below 500 nM.

`CC(C)COc1cc(F)cc(S(=O)(=O)c2ccc3c(c2)OCC2NCCC32)c1` (single isomer, unassigned) [Example 39, 7-{[3-fluoro-5-(2-methylpropoxy)phenyl]sulfonyl}-1,2,3,3a,4,9b-hexahydrochromeno[3,4-b]pyrrole]: the Ki under setting [1] is below 500 nM.

Regarding `O=S(=O)(c1cccc(OC(F)(F)F)c1)c1ccc2c(c1)OCC1NCCC21` (single isomer, unassigned) [Example 16, 7-{[3-(trifluoromethoxy)phenyl]sulfonyl}-1,2,3,3a,4,9b-hexahydrochromeno[3,4-b]pyrrole], the Ki under setting [1] was below 500 nM.

Consider `O=S(=O)(c1cc(F)cc(Cl)c1)c1ccc2c(c1)OCC1NCCC21` (single isomer, unassigned) [Example 15, 7-[(3-chloro-5-fluorophenyl)sulfonyl]-1,2,3,3a,4,9b-hexahydrochromeno[3,4-b]pyrrole], for which the Ki under setting [1] is below 500 nM.

On to `CC(C)N1CCC2c3ccc(S(=O)(=O)c4ccccc4)cc3OCC21` (single isomer, unassigned) [Example 57, 7-(phenylsulfonyl)-3-(propan-2-yl)-1,2,3,3a,4,9b-hexahydrochromeno[3,4-b]pyrrole], for which the Ki reads like this: (actual data, read-out: Human 5-HT6 Ki) 504 nM; under setting [1], 500 to 1000 nM.

With `CN(C)C(=O)c1cccc(S(=O)(=O)c2ccc3c(c2)OC[C@H]2NCC[C@@H]32)c1` (single isomer, unassigned) [Example 38], under setting [1], the Ki is below 500 nM.

Take `O=S(=O)(c1cncc(F)c1)c1ccc2c(c1)OCC1C2CCN1C1CCC1` (single isomer, unassigned) [Example 80, 3-cyclobutyl-7-[(5-fluoropyridin-3-yl)sulfonyl]-1,2,3,3a,4,9b-hexahydrochromeno[3,4-b]pyrrole]: under setting [1], the Ki is above 1000 nM.

For the compound `Cc1cccc([S+]([O-])c2ccc3c(c2)OCC2C3CCN2C2CCC2)n1` (single isomer, unassigned) [Example 83, 3-cyclobutyl-7-[(6-methylpyridin-2-yl)sulfinyl]-1,2,3,3a,4,9b-hexahydrochromeno[3,4-b]pyrrole], the Ki under setting [1] is above 1000 nM.

For `O=S(=O)(c1ccccc1)c1ccc2c(c1)OCC1C2CCN1CC(F)F` (single isomer, unassigned) [Example 67, 3-(2,2-difluoroethyl)-7-(phenylsulfonyl)-1,2,3,3a,4,9b-hexahydrochromeno[3,4-b]pyrrole], under setting [1], the Ki was below 500 nM.

Regarding `CC(C)CCCN1CCC2c3ccc(S(=O)(=O)c4ccccc4)cc3OCC21` (single isomer, unassigned) [Example 101, 3-(4-methylpentyl)-7-(phenylsulfonyl)-1,2,3,3a,4,9b-hexahydrochromeno[3,4-b]pyrrole], under setting [1], the Ki was above 1000 nM.

For `O=S(=O)(c1cc(Cl)cc(Cl)c1)c1ccc2c(c1)OCC1NCCC21` (single isomer, unassigned) [Example 3, 7-[(3,5-dichlorophenyl)sulfonyl]-1,2,3,3a,4,9b-hexahydrochromeno[3,4-b]pyrrole], the Ki under setting [1] is below 500 nM.

In the case of `O=S(=O)(c1ccccc1)c1ccc2c(c1)C1CCNC1CO2` (single isomer, unassigned) [Example 53, 8-(phenylsulfonyl)-1,2,3,3a,4,9b-hexahydrochromeno[3,4-b]pyrrole], the Ki under setting [1] was below 500 nM.

Regarding `O=S(=O)(c1cncc(F)c1)c1ccc2c(c1)OCC1NCCC21` (single isomer, unassigned) [Example 32, 7-[(5-fluoropyridin-3-yl)sulfonyl]-1,2,3,3a,4,9b-hexahydrochromeno[3,4-b]pyrrole], the Ki under setting [2] is above 1000 nM.

As for `O=S(=O)(c1cccc(C(F)(F)F)c1)c1ccc2c(c1)OCC1NCCC21` (single isomer, unassigned) [Example 8, 7-{[3-(trifluoromethyl)phenyl]sulfonyl}-1,2,3,3a,4,9b-hexahydrochromeno[3,4-b]pyrrole], the Ki under setting [1] is below 500 nM.

For `CC(C)Oc1cccc(S(=O)(=O)c2ccc3c(c2)OCC2NCCC32)c1` (single isomer, unassigned) [Example 18, 7-{[3-(propan-2-yloxy)phenyl]sulfonyl}-1,2,3,3a,4,9b-hexahydrochromeno[3,4-b]pyrrole], under setting [1], the Ki is below 500 nM.

Regarding `O=S(=O)(c1cncc(F)c1)c1ccc2c(c1)OCC1NCCC21` (single isomer, unassigned) [Example 29, 7-[(5-fluoropyridin-3-yl)sulfonyl]-1,2,3,3a,4,9b-hexahydrochromeno[3,4-b]pyrrole], the Ki under setting [2] is below 500 nM.

Turning to `CC(C)Oc1cc(F)cc(S(=O)(=O)c2ccc3c(c2)OCC2NCCC32)c1` (single isomer, unassigned) [Example 108, 7-{[3-fluoro-5-(propan-2-yloxy)phenyl]sulfonyl}-1,2,3,3a,4,9b-hexahydrochromeno[3,4-b]pyrrole], the Ki under setting [1] is below 500 nM.
